According to US7371763B2, “Inhibition of raf kinase using quinolyl, isoquinolyl or pyridyl ureas” (Bayer Pharmaceuticals Corporation, priority 2001, dated 2008):

melting point: 198 to 199 °C
Structure (SMILES): CC(C)(C)c1ccnc(NC(=O)Nc2ccc(Oc3ccc(Cl)cc3)cc2)c1 [Entry 8, N-(4-tert-Butylpyridyl)-N′-(4-(4-chlorophenoxy)phenyl) urea]
